Data as given in patent US20140249135A1, “PIM KINASE INHIBITORS AND METHODS OF THEIR USE” (NOVARTIS AG, priority 2007, published 2014).
Like-named read-outs stand apart in the source and are kept apart here.

Legend:
Pim1 kinase = Pim1 kinase (Homo sapiens, UniProt P11309); test: Pim1 ATP depletion assay; format: biochemical; conditions: Pim1 ATP depletion assay;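 also: Luciferase-luciferin luminescence readout of residual ATP after PIM1 transfers phosphate to a peptide substrate, 40 µM ATP added, reaction run to roughly half ATP consumption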
Sequence of Pim1 kinase (P11309 whole entry): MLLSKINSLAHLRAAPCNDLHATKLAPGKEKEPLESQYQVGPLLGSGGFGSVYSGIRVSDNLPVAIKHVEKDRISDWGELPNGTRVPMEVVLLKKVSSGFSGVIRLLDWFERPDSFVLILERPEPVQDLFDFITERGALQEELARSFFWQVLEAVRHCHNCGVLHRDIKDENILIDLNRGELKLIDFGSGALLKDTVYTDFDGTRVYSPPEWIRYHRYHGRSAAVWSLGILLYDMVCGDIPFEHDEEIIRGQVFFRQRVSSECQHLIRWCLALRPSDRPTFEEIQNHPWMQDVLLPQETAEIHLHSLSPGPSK

[1] = molecular target: T1, human full length PKCE enzyme (Homo sapiens, UniProt Q02156); test: In vitro PKCE assay; format: biochemical; conditions: 10 nM enzyme, 40 uM peptide substrate, 20 uM ATP, KinaseGlo Plus readout; read-out: PKCε IC50
T1 construct: human full length PKCE enzyme purchased from InVitrogen; purchased InVitrogen
T1 sequence (Q02156 1-737): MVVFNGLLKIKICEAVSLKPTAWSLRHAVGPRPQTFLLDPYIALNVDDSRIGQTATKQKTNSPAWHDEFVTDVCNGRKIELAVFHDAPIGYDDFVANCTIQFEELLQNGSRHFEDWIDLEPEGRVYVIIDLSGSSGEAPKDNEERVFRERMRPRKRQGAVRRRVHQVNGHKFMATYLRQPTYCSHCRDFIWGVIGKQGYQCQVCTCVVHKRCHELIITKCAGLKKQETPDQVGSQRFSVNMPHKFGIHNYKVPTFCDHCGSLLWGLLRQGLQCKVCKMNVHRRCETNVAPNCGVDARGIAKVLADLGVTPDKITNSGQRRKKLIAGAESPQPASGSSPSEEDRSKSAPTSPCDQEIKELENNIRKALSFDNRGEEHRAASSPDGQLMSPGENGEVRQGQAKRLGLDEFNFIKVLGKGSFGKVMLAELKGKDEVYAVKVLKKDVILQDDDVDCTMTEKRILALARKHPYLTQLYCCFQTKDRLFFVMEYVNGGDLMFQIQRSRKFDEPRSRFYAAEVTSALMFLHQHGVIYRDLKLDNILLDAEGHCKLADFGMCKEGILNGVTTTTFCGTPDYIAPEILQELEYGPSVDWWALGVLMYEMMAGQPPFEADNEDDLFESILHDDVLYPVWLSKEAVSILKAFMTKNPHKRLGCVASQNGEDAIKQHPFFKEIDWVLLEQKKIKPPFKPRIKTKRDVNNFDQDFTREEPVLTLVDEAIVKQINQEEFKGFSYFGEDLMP

Pim3 kinase = Pim3 kinase (Homo sapiens, UniProt Q86V86); test: Pim3 ATP depletion assay; format: biochemical
HEL 92.1.7 cells = test: Cell proliferation assay (CellTiter-Glo), HEL 92.1.7; format: cell-based; conditions: Homo sapiens
Experimental: HEL 92.1.7 cells (ATTC No. TIB-180, an erythroleukemia line derived from malignant peripheral blood), MV4-11 cells (ATCC No. CRL-9591, a human acute monocytic leukemia line) and PC3 cells (ATCC No. CRL-1435, a human prostatic adenocarcinoma line) were cultured in RPMI1640 supplemented with 10% FBS, sodium pyruvate and antibiotics. Cells were plated in the same medium at a density of 1000 cells per well into 96 well tissue culture plates, with outside wells vacant, on the day of assay.
Test compounds supplied in DMSO were diluted into DMSO at 500 times the desired final concentrations before dilution into culture media to 2 times final concentrations. Equal volumes of 2× compounds were added to the cells in 96 well plates and incubated at 37° C. for 3 days.
After 3 days plates were equilibrated to room temperature and equal volume of CellTiter-Glow Reagent (Promega) was added to the culture wells. The plates were agitated briefly and luminescent signal was measured with luminometer. The percent inhibition of the signal seen in cells treated with DMSO alone vs. cells treated with control compound was calculated and used to determine EC50 values (i.e., the concentration of a test compound that is required to obtain 50% of the maximum effect in the cells) for tested compounds, as shown in Example 763.

Pim2 kinase = Pim2 kinase (Homo sapiens, UniProt Q9P1W9); test: Pim2 ATP depletion assay; format: biochemical;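 also: Luciferase-based luminescent readout of ATP remaining after PIM2 phosphorylates a BAD peptide, final 5 nM enzyme, 4 µM ATP, 10 µM peptide, 2.5% DMSO, run to roughly half ATP consumption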
Sequence of Pim2 kinase (Q9P1W9 whole entry): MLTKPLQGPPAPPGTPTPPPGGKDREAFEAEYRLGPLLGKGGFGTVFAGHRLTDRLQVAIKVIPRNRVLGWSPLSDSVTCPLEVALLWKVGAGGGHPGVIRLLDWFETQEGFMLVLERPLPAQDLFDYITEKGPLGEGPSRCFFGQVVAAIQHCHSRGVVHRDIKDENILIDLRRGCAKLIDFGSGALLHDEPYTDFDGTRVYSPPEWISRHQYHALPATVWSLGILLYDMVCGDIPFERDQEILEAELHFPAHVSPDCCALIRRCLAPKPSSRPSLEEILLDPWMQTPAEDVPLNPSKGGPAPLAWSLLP

Row | SMILES | IC50 (Pim1 kinase; read-out: IC50 (μM) PIM1) [µM] | IC50 [1] [nM] | IC50 (Pim3 kinase; read-out: IC50 (μM) PIM3) [µM] | EC50 (HEL 92.1.7 cells; read-out: EC50 (μM) HEL 92.1.7) [µM] | IC50 (Pim2 kinase; read-out: IC50 (μM) PIM2) [µM] | IC50 (Pim1 kinase; read-out: PIM1 IC50) [µM] | IC50 (Pim3 kinase; read-out: PIM3 IC50) [µM] | EC50 (HEL 92.1.7 cells; read-out: HEL 92.1.7 EC50) [µM] | IC50 (Pim2 kinase; read-out: PIM2 IC50) [µM]
1 | Nc1ncc(-c2ccc(Cl)cc2)nc1C(=O)Nc1cnccc1N1CCCC(N)C1 (centres unmarked) [Example 353, 3-amino-6-(4-chloro-phenyl)-pyrazine-2-carboxylic acid (3-amino-3,4,5,6-tetrahydro-2H-[1,4′]bipyridinyl-3′-yl)-amide] | < 1 | < 1000 | < 1 | < 1 | < 1 | – | – | – | –
2 | Nc1ncc(Br)nc1C(=O)Nc1[nH]c(=O)ncc1N1CCCC(F)C1 (centres unmarked) [Example 155, 3-amino-6-bromo-N-[5-(3-fluoropiperidin-1-yl)-2-oxo-2,3-dihydropyrimidin-4-yl]pyrazine-2-carboxamide] | < 1 | 1000 to 10000 | < 1 | 5 to 10 | < 1 | – | – | – | –
3 | NCC1CCCN(c2ccncc2NC(=O)c2nc(Br)cnc2N)C1 (centres unmarked) [Example 180, 3-amino-N-{4-[3-(amino-methyl)piperidin-1-yl]pyridin-3-yl}-6-bromopyrazine-2-carboxamide] | < 1 | < 1000 | < 1 | < 1 | < 1 | – | – | – | –
4 | COc1ccccc1-c1cnc(N)c(C(=O)Nc2cnccc2N2CCCC(N)C2)n1 (centres unmarked) [Example 349, 3-amino-6-(2-methoxy-phenyl)-pyrazine-2-carboxylic acid (3-amino-3,4,5,6-tetra-hydro-2H-[1,4′]bipyridinyl-3′-yl)-amide] | < 1 | 1000 to 10000 | < 1 | < 1 | < 1 | – | – | – | –
5 | Nc1ncc(Br)nc1C(=O)Nc1[nH]c(=O)ncc1-c1nccs1 [Example 143, 3-amino-6-bromo-N-[2-oxo-5-(1,3-thiazol-2-yl)-2,3-dihydro-pyrimidin-4-yl]pyrazine-2-carboxamide] | < 1 | > 25000 | < 1 | 1 to 5 | < 1 | – | – | – | –
6 | Nc1ncc(-c2ccccc2OC(F)(F)F)nc1C(=O)Nc1cnccc1N1CCCC(N)C1 (centres unmarked) [Example 347, 3-amino-6-(2-trifluoro-methoxy-phenyl)-pyrazine-2-carboxylic acid (3-amino-3,4,5,6-tetrahydro-2H-[1,4′]bi-pyridinyl-3′-yl)-amide] | < 1 | < 1000 | < 1 | < 1 | < 1 | – | – | – | –
7 | Nc1ncc(-c2ccccc2Cl)nc1C(=O)Nc1[nH]c(=O)ncc1N1CCCC(N)C1 (centres unmarked) [Example 402, 3-amino-6-(2-chloro-phenyl)-pyrazine-2-carboxylic acid [5-(3-amino-piperidin-1-yl)-2-oxo-2,3-dihydro-pyrimidin-4-yl]-amide] | < 1 | 1000 to 10000 | < 1 | 5 to 10 | < 1 | – | – | – | –
8 | Nc1ncc(-c2ccccc2F)nc1C(=O)Nc1[nH]c(=O)ncc1N1CCCCC1 [Example 592, 3-amino-6-(2-fluoro-phenyl)-pyrazine-2-carboxylic acid (2-oxo-5-piperidin-1-yl-2,3-dihydro-pyrimidin-4-yl)-amide] | – | 1000 to 10000 | – | – | – | < 1 | < 1 | < 1 | < 1
9 | Nc1ncc(Br)nc1C(=O)Nc1[nH]c(=O)ncc1N1CCC(F)(F)CC1 [Example 157, 3-amino-6-bromo-N-[5-(4,4-difluoropiperidin-1-yl)-2-oxo-2,3-dihydropyrimidin-4-yl]-pyrazine-2-carboxamide] | < 1 | > 25000 | < 1 | > 10 | < 1 | – | – | – | –
10 | NCC(=O)N1CCN(c2ccncc2NC(=O)c2nc(Br)cnc2N)CC1 [Example 179, 3-amino-N-{4-[4-(aminoacetyl)-piperazin-1-yl]pyridin-3-yl}-6-bromopyrazine-2-carboxamide] | < 1 | < 1000 | < 1 | 1 to 5 | < 1 | – | – | – | –
